The conditions of the series: Crystal; DSC.

Structures are written as SMILES. Numbers after ± are expanded uncertainties.

Consider `Nc1ccc(S(N)(=O)=O)cc1` [4-aminobenzenesulfonamide], for which the Triple point temperature is 437.78 ± 1.2 K.

Source of the values: the NIST ThermoML archive (doi:10.1021/acs.jced.9b00411).
